What was measured:
[1] = molecular target: T1, Gamma-aminobutyric acid receptor subunit alpha-1 (Rattus norvegicus, UniProt P62813)
[2] = molecular target: Neuronal acetylcholine receptor subunit alpha-4 (Homo sapiens, UniProt P43681)
[3] = molecular target: Vasopressin V2 receptor (Homo sapiens, UniProt P30518)
[4] = molecular target: 5-hydroxytryptamine receptor 2B (Homo sapiens, UniProt P41595); format: functional, cell-based
[5] = molecular target: T1, Gamma-aminobutyric acid receptor subunit alpha-1; format: functional
[6] = molecular target: Kappa-type opioid receptor (Homo sapiens, UniProt P41145)
[7] = molecular target: T2, Alpha-1A adrenergic receptor (Homo sapiens, UniProt P35348); format: functional, cell-based
T2 sequence (P35348 whole entry): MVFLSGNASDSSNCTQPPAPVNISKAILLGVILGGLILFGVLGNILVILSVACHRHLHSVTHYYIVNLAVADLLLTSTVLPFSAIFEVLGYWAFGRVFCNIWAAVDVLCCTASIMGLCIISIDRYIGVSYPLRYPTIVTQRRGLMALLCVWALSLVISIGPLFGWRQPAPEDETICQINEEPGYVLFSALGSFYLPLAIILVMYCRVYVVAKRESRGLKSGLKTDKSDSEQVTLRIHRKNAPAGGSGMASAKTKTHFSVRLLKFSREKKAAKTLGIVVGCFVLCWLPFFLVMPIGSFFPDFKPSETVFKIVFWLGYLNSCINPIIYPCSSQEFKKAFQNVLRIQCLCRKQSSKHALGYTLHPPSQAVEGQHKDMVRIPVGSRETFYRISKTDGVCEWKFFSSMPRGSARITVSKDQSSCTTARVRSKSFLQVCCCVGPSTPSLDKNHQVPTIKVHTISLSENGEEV

[8] = molecular target: Cannabinoid receptor 1 (Homo sapiens, UniProt P21554); format: functional, cell-based
[9] = molecular target: Muscarinic acetylcholine receptor M3 (Homo sapiens, UniProt P20309)
[10] = molecular target: T3, Gastrin/cholecystokinin type B receptor (Homo sapiens, UniProt P32239)
T3 sequence (P32239 whole entry): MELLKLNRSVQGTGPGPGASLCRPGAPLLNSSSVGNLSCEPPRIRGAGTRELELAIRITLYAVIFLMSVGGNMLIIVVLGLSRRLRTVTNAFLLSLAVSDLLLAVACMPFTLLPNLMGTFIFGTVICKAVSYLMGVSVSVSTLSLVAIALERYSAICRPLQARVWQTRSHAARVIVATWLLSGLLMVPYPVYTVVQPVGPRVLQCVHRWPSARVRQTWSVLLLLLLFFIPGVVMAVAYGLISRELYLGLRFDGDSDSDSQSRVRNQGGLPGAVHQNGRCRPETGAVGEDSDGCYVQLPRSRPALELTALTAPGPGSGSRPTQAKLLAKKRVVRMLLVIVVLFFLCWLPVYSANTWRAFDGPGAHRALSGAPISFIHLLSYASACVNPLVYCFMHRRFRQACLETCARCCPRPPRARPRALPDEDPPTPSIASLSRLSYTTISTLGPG

[11] = molecular target: T4, 5-hydroxytryptamine receptor 1A (Homo sapiens, UniProt P08908); format: functional, cell-based
T4 sequence (P08908 whole entry): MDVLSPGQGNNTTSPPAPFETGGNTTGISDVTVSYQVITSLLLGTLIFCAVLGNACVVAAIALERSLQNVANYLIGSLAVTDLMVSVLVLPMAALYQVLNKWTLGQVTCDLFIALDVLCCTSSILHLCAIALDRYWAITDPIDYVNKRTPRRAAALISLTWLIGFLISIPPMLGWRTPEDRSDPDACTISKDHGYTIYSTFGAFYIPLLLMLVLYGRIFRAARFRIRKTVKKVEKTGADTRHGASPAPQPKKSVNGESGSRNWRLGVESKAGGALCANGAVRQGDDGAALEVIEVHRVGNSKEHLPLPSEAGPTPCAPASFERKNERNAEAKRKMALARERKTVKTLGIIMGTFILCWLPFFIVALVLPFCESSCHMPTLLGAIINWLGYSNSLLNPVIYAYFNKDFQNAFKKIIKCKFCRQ

[12] = molecular target: T5, Alpha-2C adrenergic receptor (Homo sapiens, UniProt P18825); format: functional
T5 sequence (P18825 whole entry): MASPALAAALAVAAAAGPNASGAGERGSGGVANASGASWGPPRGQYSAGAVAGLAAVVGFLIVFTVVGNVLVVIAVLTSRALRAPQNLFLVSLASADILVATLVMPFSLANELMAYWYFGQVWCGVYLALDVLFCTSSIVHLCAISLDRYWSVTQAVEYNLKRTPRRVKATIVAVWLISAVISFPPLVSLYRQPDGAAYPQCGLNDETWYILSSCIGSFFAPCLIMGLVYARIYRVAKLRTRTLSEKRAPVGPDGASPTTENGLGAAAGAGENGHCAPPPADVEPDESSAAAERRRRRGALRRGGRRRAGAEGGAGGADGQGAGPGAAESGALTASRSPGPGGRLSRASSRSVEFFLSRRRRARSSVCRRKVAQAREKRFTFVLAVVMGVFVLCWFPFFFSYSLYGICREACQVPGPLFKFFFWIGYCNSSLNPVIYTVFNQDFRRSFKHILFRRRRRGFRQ

[13] = molecular target: 5-hydroxytryptamine receptor 2A (Homo sapiens, UniProt P28223); format: functional, cell-based
[14] = molecular target: D(3) dopamine receptor (Homo sapiens, UniProt P35462)
[15] = molecular target: Sodium-dependent serotonin transporter (Homo sapiens, UniProt P31645)
[16] = molecular target: T6, Endothelin-1 receptor (Homo sapiens, UniProt P25101)
T6 sequence (P25101 whole entry): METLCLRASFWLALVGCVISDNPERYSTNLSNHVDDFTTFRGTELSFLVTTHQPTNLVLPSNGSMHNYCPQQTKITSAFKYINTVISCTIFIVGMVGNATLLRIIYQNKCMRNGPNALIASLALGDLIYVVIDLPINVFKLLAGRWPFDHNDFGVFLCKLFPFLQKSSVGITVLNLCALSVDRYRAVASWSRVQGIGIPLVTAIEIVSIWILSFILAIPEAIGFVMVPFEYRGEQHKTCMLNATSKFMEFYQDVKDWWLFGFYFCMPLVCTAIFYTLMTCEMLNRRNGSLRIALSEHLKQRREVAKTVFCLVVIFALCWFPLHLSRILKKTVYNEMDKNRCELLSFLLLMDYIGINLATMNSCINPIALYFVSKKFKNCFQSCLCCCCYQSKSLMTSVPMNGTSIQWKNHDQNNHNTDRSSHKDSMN
Also: assay procedure not described here.

Sequence of Neuronal acetylcholine receptor subunit alpha-4 (P43681 whole entry): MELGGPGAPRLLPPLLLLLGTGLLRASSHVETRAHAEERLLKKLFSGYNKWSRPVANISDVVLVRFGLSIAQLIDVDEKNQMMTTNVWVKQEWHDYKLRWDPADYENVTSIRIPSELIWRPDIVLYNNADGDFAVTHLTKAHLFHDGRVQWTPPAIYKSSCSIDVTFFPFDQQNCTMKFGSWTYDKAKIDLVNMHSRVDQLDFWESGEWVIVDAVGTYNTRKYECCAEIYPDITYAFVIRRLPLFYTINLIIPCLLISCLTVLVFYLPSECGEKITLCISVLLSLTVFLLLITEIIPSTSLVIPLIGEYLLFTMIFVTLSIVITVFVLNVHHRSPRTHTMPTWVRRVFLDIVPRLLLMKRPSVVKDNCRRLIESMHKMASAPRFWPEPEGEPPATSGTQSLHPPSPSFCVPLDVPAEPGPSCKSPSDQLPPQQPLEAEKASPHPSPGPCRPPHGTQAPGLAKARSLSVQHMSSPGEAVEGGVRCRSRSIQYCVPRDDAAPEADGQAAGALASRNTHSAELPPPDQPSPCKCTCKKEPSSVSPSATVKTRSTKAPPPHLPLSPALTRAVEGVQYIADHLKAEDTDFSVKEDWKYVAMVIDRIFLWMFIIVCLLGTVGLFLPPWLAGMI
Sequence of Cannabinoid receptor 1 (P21554 whole entry): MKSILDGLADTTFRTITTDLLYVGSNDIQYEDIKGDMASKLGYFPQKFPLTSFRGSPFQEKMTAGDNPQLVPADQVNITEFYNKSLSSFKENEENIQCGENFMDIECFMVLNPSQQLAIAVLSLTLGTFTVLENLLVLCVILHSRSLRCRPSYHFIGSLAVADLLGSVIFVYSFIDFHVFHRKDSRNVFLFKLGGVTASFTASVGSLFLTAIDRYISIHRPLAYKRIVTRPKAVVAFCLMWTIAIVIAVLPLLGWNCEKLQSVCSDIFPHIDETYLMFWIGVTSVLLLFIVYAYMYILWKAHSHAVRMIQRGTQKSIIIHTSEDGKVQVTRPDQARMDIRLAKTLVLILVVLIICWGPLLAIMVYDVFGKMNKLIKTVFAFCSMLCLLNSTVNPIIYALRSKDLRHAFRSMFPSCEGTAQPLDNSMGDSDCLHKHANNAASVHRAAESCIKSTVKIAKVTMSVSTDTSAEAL
Sequence of 5-hydroxytryptamine receptor 2A (P28223 whole entry): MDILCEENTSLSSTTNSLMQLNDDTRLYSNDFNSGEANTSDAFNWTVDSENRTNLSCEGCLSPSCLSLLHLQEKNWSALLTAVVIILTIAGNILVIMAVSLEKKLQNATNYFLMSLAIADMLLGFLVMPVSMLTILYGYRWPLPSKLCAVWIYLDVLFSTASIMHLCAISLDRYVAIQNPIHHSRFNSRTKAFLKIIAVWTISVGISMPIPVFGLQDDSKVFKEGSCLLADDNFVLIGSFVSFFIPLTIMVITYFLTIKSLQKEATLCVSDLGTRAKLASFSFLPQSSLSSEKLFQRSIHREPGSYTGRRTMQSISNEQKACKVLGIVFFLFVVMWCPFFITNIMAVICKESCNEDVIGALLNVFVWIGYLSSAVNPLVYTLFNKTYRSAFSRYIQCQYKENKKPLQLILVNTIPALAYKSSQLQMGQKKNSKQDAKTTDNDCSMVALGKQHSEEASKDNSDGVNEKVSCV
T1 sequence (P62813 whole entry): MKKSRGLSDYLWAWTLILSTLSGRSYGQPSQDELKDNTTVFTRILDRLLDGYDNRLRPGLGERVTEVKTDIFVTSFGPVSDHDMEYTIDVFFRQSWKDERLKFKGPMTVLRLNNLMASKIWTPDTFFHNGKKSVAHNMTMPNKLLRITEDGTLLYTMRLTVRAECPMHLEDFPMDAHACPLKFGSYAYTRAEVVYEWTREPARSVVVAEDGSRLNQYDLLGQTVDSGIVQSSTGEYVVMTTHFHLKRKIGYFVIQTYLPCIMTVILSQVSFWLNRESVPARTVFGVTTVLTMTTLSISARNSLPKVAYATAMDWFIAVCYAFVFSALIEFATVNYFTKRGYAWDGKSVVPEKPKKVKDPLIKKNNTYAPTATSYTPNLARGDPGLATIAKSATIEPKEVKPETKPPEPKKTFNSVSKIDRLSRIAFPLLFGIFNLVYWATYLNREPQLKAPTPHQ
Sequence of Vasopressin V2 receptor (P30518 whole entry): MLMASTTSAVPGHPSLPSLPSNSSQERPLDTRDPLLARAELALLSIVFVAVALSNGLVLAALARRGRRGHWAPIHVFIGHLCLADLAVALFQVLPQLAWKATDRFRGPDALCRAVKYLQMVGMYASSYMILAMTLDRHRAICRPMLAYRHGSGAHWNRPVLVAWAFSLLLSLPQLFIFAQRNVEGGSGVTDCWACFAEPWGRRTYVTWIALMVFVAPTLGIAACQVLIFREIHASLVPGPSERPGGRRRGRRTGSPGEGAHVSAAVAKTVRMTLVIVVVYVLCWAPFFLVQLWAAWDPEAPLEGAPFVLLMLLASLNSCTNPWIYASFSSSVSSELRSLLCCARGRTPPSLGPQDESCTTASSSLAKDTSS
Sequence of Muscarinic acetylcholine receptor M3 (P20309 whole entry): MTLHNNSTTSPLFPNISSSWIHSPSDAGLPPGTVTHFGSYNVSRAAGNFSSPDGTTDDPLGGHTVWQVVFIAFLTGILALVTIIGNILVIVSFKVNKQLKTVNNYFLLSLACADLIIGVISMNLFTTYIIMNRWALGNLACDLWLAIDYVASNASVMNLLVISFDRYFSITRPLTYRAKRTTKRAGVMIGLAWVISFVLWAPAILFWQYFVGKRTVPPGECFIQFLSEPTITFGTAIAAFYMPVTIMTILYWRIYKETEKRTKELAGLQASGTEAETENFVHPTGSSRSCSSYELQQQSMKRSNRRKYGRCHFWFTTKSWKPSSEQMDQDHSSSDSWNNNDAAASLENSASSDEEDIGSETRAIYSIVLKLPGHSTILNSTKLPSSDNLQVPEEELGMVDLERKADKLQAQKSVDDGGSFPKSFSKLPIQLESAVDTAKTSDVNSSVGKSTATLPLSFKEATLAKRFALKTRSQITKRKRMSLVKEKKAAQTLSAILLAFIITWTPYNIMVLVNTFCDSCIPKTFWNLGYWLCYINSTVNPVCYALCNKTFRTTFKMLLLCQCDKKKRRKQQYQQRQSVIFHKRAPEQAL
Sequence of 5-hydroxytryptamine receptor 2B (P41595 whole entry): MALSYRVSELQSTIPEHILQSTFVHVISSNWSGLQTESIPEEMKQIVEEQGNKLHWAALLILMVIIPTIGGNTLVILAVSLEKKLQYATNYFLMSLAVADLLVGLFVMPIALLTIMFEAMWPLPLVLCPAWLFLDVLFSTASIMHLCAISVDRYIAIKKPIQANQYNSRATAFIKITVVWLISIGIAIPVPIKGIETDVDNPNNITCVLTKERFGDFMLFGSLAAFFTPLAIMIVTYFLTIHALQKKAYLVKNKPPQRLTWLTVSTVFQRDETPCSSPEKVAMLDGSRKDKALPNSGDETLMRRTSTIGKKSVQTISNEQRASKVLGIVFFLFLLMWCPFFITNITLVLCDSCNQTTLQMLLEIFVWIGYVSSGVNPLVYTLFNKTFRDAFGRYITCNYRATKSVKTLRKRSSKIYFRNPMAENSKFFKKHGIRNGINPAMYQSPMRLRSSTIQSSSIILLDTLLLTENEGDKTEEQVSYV
Sequence of Kappa-type opioid receptor (P41145 whole entry): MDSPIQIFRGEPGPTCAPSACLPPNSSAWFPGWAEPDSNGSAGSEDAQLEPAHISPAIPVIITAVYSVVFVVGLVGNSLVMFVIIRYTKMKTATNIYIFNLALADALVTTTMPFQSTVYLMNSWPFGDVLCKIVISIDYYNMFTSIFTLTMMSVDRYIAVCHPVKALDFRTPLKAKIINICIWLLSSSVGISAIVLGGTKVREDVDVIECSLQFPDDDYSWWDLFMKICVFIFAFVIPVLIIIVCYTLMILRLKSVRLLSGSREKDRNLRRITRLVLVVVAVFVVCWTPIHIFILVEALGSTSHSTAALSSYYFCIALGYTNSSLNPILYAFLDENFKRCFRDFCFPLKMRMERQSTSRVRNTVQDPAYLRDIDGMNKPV
Sequence of D(3) dopamine receptor (P35462 whole entry): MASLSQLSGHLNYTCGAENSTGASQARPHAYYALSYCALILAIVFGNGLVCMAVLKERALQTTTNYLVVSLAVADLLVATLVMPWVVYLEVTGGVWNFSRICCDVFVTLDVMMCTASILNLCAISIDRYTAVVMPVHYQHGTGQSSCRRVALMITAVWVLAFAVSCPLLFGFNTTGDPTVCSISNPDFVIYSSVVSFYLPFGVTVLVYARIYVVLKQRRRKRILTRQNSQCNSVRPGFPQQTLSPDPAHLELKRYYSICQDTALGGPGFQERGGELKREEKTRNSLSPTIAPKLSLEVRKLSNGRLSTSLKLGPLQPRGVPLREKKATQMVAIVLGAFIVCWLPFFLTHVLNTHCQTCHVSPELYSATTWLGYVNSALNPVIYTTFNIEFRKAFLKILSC
Sequence of Sodium-dependent serotonin transporter (P31645 whole entry): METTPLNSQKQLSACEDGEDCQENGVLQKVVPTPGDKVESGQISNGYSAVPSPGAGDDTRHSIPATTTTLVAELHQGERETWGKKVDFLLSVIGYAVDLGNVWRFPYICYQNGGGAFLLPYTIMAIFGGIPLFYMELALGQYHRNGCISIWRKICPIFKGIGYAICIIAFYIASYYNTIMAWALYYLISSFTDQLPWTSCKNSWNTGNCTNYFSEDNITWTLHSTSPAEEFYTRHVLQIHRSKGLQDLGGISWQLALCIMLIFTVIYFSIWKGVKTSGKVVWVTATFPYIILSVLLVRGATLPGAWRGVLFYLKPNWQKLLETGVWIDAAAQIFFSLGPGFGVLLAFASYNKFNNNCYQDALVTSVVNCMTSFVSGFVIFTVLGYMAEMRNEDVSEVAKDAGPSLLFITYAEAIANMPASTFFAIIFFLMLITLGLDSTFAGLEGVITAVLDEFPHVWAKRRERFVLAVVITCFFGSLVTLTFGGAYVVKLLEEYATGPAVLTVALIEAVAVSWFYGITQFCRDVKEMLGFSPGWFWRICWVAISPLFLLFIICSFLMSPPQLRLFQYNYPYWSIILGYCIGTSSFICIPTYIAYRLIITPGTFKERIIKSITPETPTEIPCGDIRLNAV

Compound	AC50 [1] [µM]	AC50 [2] [µM]	AC50 [3] [µM]	AC50 [4] [µM]	AC50 [5] [µM]	AC50 [6] [µM]	AC50 [7] [µM]	AC50 [8] [µM]	AC50 [9] [µM]	AC50 [10] [µM]	AC50 [11] [µM]	AC50 [12] [µM]	AC50 [13] [µM]	AC50 [14] [µM]	AC50 [15] [µM]	AC50 [16] [µM]
[H]/N=C(/N)c1ccc(NCc2nc3cc(C(=O)N(CCC(=O)O)c4ccccn4)ccc3n2C)cc1 [DABIGATRAN]	> 30	> 30	> 30	> 30	> 30	> 30	> 30	> 30	> 30	> 30	> 30	> 30	> 30	> 30	> 30	> 30
CN(C)C(=O)OC1N=C(c2ccccc2)c2cc(Cl)ccc2N(C)C1=O (stereo unspecified) [CAMAZEPAM]	> 10	> 10	> 30	18	0.96	> 10	> 30	> 30	> 10	> 30	> 10	> 10	> 30	> 10	> 10	> 30
Nc1ncnc2c1ncn2[C@@H]1O[C@H](COP(=O)(O)O)[C@@H](O)[C@H]1O [ADENOSINE PHOSPHATE]	> 30	> 30	> 30	> 30	> 30	> 30	> 30	> 30	> 30	> 30	> 30	> 30	> 30	> 30	> 30	> 30
CCCCCCCCCCCC[N+](C)(C)CCOc1ccccc1 [DOMIPHEN]	> 30	> 30	7.3	11	> 30	3.6	> 30	> 30	8.4	> 10	22	4.2	> 30	2.1	1.7	> 30
CCC(C(=O)O)c1ccc(CC(C)C)cc1 (stereo unspecified) [BUTIBUFEN]	> 30	> 30	> 30	> 30	> 30	> 30	> 30	> 30	> 30	> 30	> 30	> 30	> 30	> 30	> 30	> 30
CCOc1cc(N)c([N+](=O)[O-])cc1C(=O)NC1CCN(CC2CC=CCC2)CC1 (stereo unspecified) [CINITAPRIDE]	> 30	15	> 30	0.19	14	9.1	> 30	> 30	13	> 30	> 30	1.3	> 30	0.038	14	> 30
CCCCCCCCOc1ccccc1C(=O)Nc1ccc(C(=O)OCC[N+](C)(CC)CC)cc1 [OTILONIUM BROMIDE]	> 30	> 30	9.9	3.1	> 30	3.4	12	> 30	1.7	> 1	11	8.2	> 30	2	0.91	> 1
C1=Cc2cccc(OCC3CNCCO3)c2C1 (stereo unspecified) [INDELOXAZINE]	> 30	> 30	> 30	5.3	> 30	25	> 30	> 30	> 30	> 30	> 30	> 30	> 30	> 30	0.047	> 30
O=C(C[S+]([O-])C(c1ccccc1)c1ccccc1)NO (stereo unspecified)	> 30	> 30	> 30	> 30	> 30	> 30	> 30	> 30	> 30	> 30	> 30	> 30	> 30	> 30	> 30	> 30
C#C[C@]1(O)CC[C@H]2[C@@H]3CCC4=CCCC[C@@H]4[C@H]3CC[C@@]21C [LYNESTRENOL]	> 30	> 30	> 30	> 30	> 30	1.5	> 30	> 30	> 30	> 30	> 30	> 30	> 30	> 30	> 30	> 30
CCCCCN(C)CCC(O)(P(=O)(O)O)P(=O)(O)O [IBANDRONIC ACID]	> 30	> 30	> 30	> 30	> 30	> 30	> 30	> 30	> 30	> 30	> 30	> 30	> 30	> 30	> 30	> 30
